{"source": "paper PMC7179653", "about": "(Antimicrobial Agents and Chemotherapy, 2020)", "key": {"[1]": {"experiment": "Drug-drug interaction analysis nacubactam/meropenem (ANCOVA, geometric mean ratios)", "assay_type": "in vivo, human", "conditions": "nacubactam 2,000 mg single dose, 90% CI", "procedure": "All participants in the active group received a single 2,000-mg dose of both drugs on day 3 and q8h on days 4 to 8, with a final single dose of both drugs on the morning of day 9. A washout period of approximately 24 h between treatments was provided."}, "[2]": {"experiment": "SAD study: safety and tolerability (TEAEs)", "assay_type": "in vivo, human", "conditions": "for TEAE: Abdominal pain / TEAE: Application site rash / TEAE: Chest discomfort / TEAE: Cough / TEAE: Fatigue / TEAE: Feeling hot / TEAE: Headache / TEAE: Nasal congestion / TEAE: Rhinitis / TEAE: Sinus tachycardia / ≥1 TEAE / ≥1 drug-related TEAE / ≥1 serious TEAE / ≥1 severe TEAE: n = 6", "procedure": "The two studies were randomized, double-blind, placebo-controlled studies that enrolled participants into sequential treatment cohorts using a 3:1 active treatment-to-placebo randomization ratio.\nA sentinel dosing strategy was employed in both studies. […] In all cohorts, escalation to the next dose occurred after a safety review of the previous cohort. In the MAD study, sentinel dosing was performed in part 3, wherein participants were evaluated for safety up to 24 h after administration of the first drug combination (or placebo) on day 3, prior to enrolling additional participants.\nSafety assessments included monitoring of AEs, laboratory safety tests (hematology, serum chemistry, and urinalysis), 12-lead ECG (discrete recordings and 24-h Holter recording), and vital signs (blood pressure, pulse rate, and body temperature). In the SAD study, safety assessments were performed predose at screening, at day 1, postdose periodically on days 1, 2, and 7 (follow-up), and at early withdrawal, if relevant. Blood samples for pharmacokinetic profiling in the SAD study were collected on day 1 before the morning infusion and 0.5, 1, 1.5, 2, 3, 4, 6, 8, 12, and 24 h postinfusion start. In the MAD study, safety assessments were done predose at screening, at day 2, postdose periodically on days 1, 2, 4, 7, and 8, on days 13 to 15 (follow-up), and at early withdrawal, if relevant. In the MAD study, blood samples were collected on days 1 and 9 prior to the morning infusion and 0.5, 1, 1.5, 2, 3, 4, 6, 8, and 12 h (on day 9 only) postinfusion start. On all other days, a single predose sample was collected for pharmacokinetic evaluation prior to the morning infusion. Blood was collected into lithium-heparin tubes and stored at a nominal –80°C temperature until analysis."}}, "data": [{"smiles": "NCCONC(=O)[C@@H]1CC[C@@H]2CN1C(=O)N2OS(=O)(=O)O", "note": "[Nacubactam]", "values": [{"measurement": "CLR GMR, monotherapy vs combination with meropenem", "setting": "[1]; 0.85 to 1.07", "value": 0.95}, {"measurement": "Vss GMR, monotherapy vs combination with meropenem", "setting": "[1]; 0.87 to 1.11", "value": 0.98}, {"measurement": "TEAE: Abdominal pain", "setting": "[2]; SAD, 50 mg", "value": 0, "unit": "n/E"}, {"measurement": "TEAE: Application site rash", "setting": "[2]; SAD, 50 mg", "value": 0, "unit": "n/E"}, {"measurement": "TEAE: Chest discomfort", "setting": "[2]; SAD, 50 mg", "value": "1/1"}, {"measurement": "TEAE: Cough", "setting": "[2]; SAD, 50 mg", "value": 0, "unit": "n/E"}, {"measurement": "TEAE: Fatigue", "setting": "[2]; SAD, 50 mg", "value": "1/1"}, {"measurement": "TEAE: Feeling hot", "setting": "[2]; SAD, 50 mg", "value": 0, "unit": "n/E"}, {"measurement": "TEAE: Headache", "setting": "[2]; SAD, 50 mg", "value": 0, "unit": "n/E"}, {"measurement": "TEAE: Nasal congestion", "setting": "[2]; SAD, 50 mg", "value": "1/1"}, {"measurement": "TEAE: Rhinitis", "setting": "[2]; SAD, 50 mg", "value": 0, "unit": "n/E"}, {"measurement": "TEAE: Sinus tachycardia", "setting": "[2]; SAD, 50 mg", "value": 0, "unit": "n/E"}, {"measurement": "≥1 TEAE", "setting": "[2]; SAD, 50 mg", "value": "2/3"}, {"measurement": "≥1 drug-related TEAE", "setting": "[2]; SAD, 50 mg", "value": 0, "unit": "n/E"}, {"measurement": "≥1 serious TEAE", "setting": "[2]; SAD, 50 mg", "value": 0, "unit": "n"}, {"measurement": "≥1 severe TEAE", "setting": "[2]; SAD, 50 mg", "value": 0, "unit": "n"}, {"measurement": "TEAE: Abdominal pain", "setting": "[2]; SAD, 150 mg", "value": 0, "unit": "n/E"}, {"measurement": "TEAE: Application site rash", "setting": "[2]; SAD, 150 mg", "value": 0, "unit": "n/E"}, {"measurement": "TEAE: Chest discomfort", "setting": "[2]; SAD, 150 mg", "value": 0, "unit": "n/E"}, {"measurement": "TEAE: Cough", "setting": "[2]; SAD, 150 mg", "value": "1/1"}, {"measurement": "TEAE: Fatigue", "setting": "[2]; SAD, 150 mg", "value": 0, "unit": "n/E"}, {"measurement": "TEAE: Feeling hot", "setting": "[2]; SAD, 150 mg", "value": "1/1"}, {"measurement": "TEAE: Headache", "setting": "[2]; SAD, 150 mg", "value": 0, "unit": "n/E"}, {"measurement": "TEAE: Nasal congestion", "setting": "[2]; SAD, 150 mg", "value": 0, "unit": "n/E"}, {"measurement": "TEAE: Rhinitis", "setting": "[2]; SAD, 150 mg", "value": 0, "unit": "n/E"}, {"measurement": "TEAE: Sinus tachycardia", "setting": "[2]; SAD, 150 mg", "value": "1/1"}, {"measurement": "≥1 TEAE", "setting": "[2]; SAD, 150 mg", "value": "1/3"}, {"measurement": "≥1 drug-related TEAE", "setting": "[2]; SAD, 150 mg", "value": 0, "unit": "n/E"}, {"measurement": "≥1 serious TEAE", "setting": "[2]; SAD, 150 mg", "value": 0, "unit": "n"}, {"measurement": "≥1 severe TEAE", "setting": "[2]; SAD, 150 mg", "value": 0, "unit": "n"}, {"measurement": "TEAE: Abdominal pain", "setting": "[2]; SAD, 500 mg", "value": 0, "unit": "n/E"}, {"measurement": "TEAE: Application site rash", "setting": "[2]; SAD, 500 mg", "value": 0, "unit": "n/E"}, {"measurement": "TEAE: Chest discomfort", "setting": "[2]; SAD, 500 mg", "value": 0, "unit": "n/E"}, {"measurement": "TEAE: Cough", "setting": "[2]; SAD, 500 mg", "value": 0, "unit": "n/E"}, {"measurement": "TEAE: Fatigue", "setting": "[2]; SAD, 500 mg", "value": 0, "unit": "n/E"}, {"measurement": "TEAE: Feeling hot", "setting": "[2]; SAD, 500 mg", "value": 0, "unit": "n/E"}, {"measurement": "TEAE: Headache", "setting": "[2]; SAD, 500 mg", "value": "1/1"}, {"measurement": "TEAE: Nasal congestion", "setting": "[2]; SAD, 500 mg", "value": 0, "unit": "n/E"}, {"measurement": "TEAE: Rhinitis", "setting": "[2]; SAD, 500 mg", "value": "1/1"}, {"measurement": "TEAE: Sinus tachycardia", "setting": "[2]; SAD, 500 mg", "value": 0, "unit": "n/E"}, {"measurement": "≥1 TEAE", "setting": "[2]; SAD, 500 mg", "value": "2/2"}, {"measurement": "≥1 drug-related TEAE", "setting": "[2]; SAD, 500 mg", "value": 0, "unit": "n/E"}, {"measurement": "≥1 serious TEAE", "setting": "[2]; SAD, 500 mg", "value": 0, "unit": "n"}, {"measurement": "≥1 severe TEAE", "setting": "[2]; SAD, 500 mg", "value": 0, "unit": "n"}, {"measurement": "TEAE: Abdominal pain", "setting": "[2]; SAD, 1,000 mg", "value": "1/1"}, {"measurement": "TEAE: Application site rash", "setting": "[2]; SAD, 1,000 mg", "value": 0, "unit": "n/E"}, {"measurement": "TEAE: Chest discomfort", "setting": "[2]; SAD, 1,000 mg", "value": 0, "unit": "n/E"}, {"measurement": "TEAE: Cough", "setting": "[2]; SAD, 1,000 mg", "value": 0, "unit": "n/E"}, {"measurement": "TEAE: Fatigue", "setting": "[2]; SAD, 1,000 mg", "value": "1/1"}, {"measurement": "TEAE: Feeling hot", "setting": "[2]; SAD, 1,000 mg", "value": 0, "unit": "n/E"}, {"measurement": "TEAE: Headache", "setting": "[2]; SAD, 1,000 mg", "value": 0, "unit": "n/E"}, {"measurement": "TEAE: Nasal congestion", "setting": "[2]; SAD, 1,000 mg", "value": 0, "unit": "n/E"}, {"measurement": "TEAE: Rhinitis", "setting": "[2]; SAD, 1,000 mg", "value": 0, "unit": "n/E"}, {"measurement": "TEAE: Sinus tachycardia", "setting": "[2]; SAD, 1,000 mg", "value": 0, "unit": "n/E"}, {"measurement": "≥1 TEAE", "setting": "[2]; SAD, 1,000 mg", "value": "2/2"}, {"measurement": "≥1 drug-related TEAE", "setting": "[2]; SAD, 1,000 mg", "value": 0, "unit": "n/E"}, {"measurement": "≥1 serious TEAE", "setting": "[2]; SAD, 1,000 mg", "value": 0, "unit": "n"}, {"measurement": "≥1 severe TEAE", "setting": "[2]; SAD, 1,000 mg", "value": 0, "unit": "n"}, {"measurement": "TEAE: Abdominal pain", "setting": "[2]; SAD, 2,000 mg", "value": 0, "unit": "n/E"}, {"measurement": "TEAE: Application site rash", "setting": "[2]; SAD, 2,000 mg", "value": 0, "unit": "n/E"}, {"measurement": "TEAE: Chest discomfort", "setting": "[2]; SAD, 2,000 mg", "value": 0, "unit": "n/E"}, {"measurement": "TEAE: Cough", "setting": "[2]; SAD, 2,000 mg", "value": 0, "unit": "n/E"}, {"measurement": "TEAE: Fatigue", "setting": "[2]; SAD, 2,000 mg", "value": 0, "unit": "n/E"}, {"measurement": "TEAE: Feeling hot", "setting": "[2]; SAD, 2,000 mg", "value": 0, "unit": "n/E"}, {"measurement": "TEAE: Headache", "setting": "[2]; SAD, 2,000 mg", "value": "1/1"}, {"measurement": "TEAE: Nasal congestion", "setting": "[2]; SAD, 2,000 mg", "value": 0, "unit": "n/E"}, {"measurement": "TEAE: Rhinitis", "setting": "[2]; SAD, 2,000 mg", "value": 0, "unit": "n/E"}, {"measurement": "TEAE: Sinus tachycardia", "setting": "[2]; SAD, 2,000 mg", "value": 0, "unit": "n/E"}, {"measurement": "≥1 TEAE", "setting": "[2]; SAD, 2,000 mg", "value": "1/1"}, {"measurement": "≥1 drug-related TEAE", "setting": "[2]; SAD, 2,000 mg", "value": "1/1"}, {"measurement": "≥1 serious TEAE", "setting": "[2]; SAD, 2,000 mg", "value": 0, "unit": "n"}, {"measurement": "≥1 severe TEAE", "setting": "[2]; SAD, 2,000 mg", "value": 0, "unit": "n"}, {"measurement": "total number of AEs", "setting": "[2]; SAD, all nacubactam doses, 30 participants", "value": 11}, {"measurement": "participants reporting one or more AEs", "setting": "[2]; SAD, all nacubactam doses, eight of the 30 participants", "value": 26.7, "unit": "%"}]}]}
